How the values were obtained:
[1] = system: récepteur de l'oestradiol; assay: Relative binding affinity (A.R.L) for the estradiol receptor; details: vis-à-vis du récepteur de l'oestradiol
Source text: Dans cette optique, des composés tels que 7 et 8 sont préparés (9b). Ils portent des petits clusters en 17a-et couvrent une gamme de valeurs de PKR+ de -6 pour 7 à +3 pour 8.

[2] = target: T1, Récepteur de la progestérone (Homo sapiens, UniProt P06401); details: photochemically activated, after 1H; cited from earlier work
T1 sequence (P06401 1-933): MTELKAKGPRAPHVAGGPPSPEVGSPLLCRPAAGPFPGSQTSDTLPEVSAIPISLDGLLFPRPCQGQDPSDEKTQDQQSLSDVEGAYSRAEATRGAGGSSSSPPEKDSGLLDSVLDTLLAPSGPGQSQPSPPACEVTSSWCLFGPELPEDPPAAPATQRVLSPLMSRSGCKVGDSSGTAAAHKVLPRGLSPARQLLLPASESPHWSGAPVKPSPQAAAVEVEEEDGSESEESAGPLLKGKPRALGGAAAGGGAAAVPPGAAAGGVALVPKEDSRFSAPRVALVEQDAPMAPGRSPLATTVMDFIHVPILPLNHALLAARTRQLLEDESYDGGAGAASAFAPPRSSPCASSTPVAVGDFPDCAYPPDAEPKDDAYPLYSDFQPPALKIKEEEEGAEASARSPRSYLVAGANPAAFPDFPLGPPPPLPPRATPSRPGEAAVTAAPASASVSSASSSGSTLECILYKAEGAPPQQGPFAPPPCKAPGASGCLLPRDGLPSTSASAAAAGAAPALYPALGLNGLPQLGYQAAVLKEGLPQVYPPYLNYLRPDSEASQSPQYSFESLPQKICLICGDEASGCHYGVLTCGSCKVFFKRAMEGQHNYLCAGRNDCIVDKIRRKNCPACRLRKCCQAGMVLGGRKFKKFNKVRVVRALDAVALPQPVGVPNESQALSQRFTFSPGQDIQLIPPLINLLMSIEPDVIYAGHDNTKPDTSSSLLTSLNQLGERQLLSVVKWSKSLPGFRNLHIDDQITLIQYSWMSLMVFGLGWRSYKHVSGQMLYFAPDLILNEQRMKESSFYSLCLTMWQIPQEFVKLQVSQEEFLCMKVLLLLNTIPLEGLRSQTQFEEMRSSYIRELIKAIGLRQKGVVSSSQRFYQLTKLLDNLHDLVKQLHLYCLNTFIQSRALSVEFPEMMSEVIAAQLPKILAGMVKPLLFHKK

[3] = system: récepteur de l'oestradiol; details: cited from earlier work
[4] = target: T2, récepteurs nucléaires de l'oestradiol d'utérus de brebis (Ovis aries, UniProt A0ACI6Q0N8); assay: Irreversible binding to nuclear estradiol receptors in ewe uterus nuclear extract (exchange with 10 nM tritiated estradiol, protamine sulfate precipitation)
T2 sequence (A0ACI6Q0N8 1-596): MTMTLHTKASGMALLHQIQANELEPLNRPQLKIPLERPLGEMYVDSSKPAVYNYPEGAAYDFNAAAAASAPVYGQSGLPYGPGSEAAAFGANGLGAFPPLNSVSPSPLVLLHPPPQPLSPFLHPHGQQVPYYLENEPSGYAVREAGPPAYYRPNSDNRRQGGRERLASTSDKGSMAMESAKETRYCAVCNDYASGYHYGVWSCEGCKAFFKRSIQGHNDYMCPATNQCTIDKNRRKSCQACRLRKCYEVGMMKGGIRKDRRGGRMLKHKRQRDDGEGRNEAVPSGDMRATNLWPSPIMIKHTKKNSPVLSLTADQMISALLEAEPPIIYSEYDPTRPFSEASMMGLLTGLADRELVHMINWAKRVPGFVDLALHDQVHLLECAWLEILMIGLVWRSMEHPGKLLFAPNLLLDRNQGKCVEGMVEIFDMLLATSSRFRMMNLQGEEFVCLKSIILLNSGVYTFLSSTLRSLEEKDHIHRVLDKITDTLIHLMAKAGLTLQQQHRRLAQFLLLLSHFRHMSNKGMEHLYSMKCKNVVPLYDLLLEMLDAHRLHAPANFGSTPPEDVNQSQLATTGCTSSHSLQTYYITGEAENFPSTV
Procedure: La nature irréversible de l'intéraction du composé 12 avec le récepteur a été démontrée en incubant un extrait nucléaire d'utérus de brebis en présence de molarités variables de complexe 12. A la fin du temps . d'incubation, l'hormone libre, présente dans le milieu, est éliminée par traitement au charbon dextran. Les fractions d'extrait nucléaire sont ensuite incubées à 20°C pendant 17 h. en présence de 10 nM d'oestradiol tritié. La fraction d'oestradiol tritiée liée (qui représente la quantité de récepteur qui n'a pas été marquée de façon covalente) est déterminée après précipitation des fractions liées au sulfate de protamine (9b). Les résultats sont rassemblés dans le tableau suivant

[5] = target: T3, Récepteur des glucocorticoîdes (Homo sapiens, UniProt P04150); details: whole cells; cited from earlier work
T3 sequence (P04150 1-777): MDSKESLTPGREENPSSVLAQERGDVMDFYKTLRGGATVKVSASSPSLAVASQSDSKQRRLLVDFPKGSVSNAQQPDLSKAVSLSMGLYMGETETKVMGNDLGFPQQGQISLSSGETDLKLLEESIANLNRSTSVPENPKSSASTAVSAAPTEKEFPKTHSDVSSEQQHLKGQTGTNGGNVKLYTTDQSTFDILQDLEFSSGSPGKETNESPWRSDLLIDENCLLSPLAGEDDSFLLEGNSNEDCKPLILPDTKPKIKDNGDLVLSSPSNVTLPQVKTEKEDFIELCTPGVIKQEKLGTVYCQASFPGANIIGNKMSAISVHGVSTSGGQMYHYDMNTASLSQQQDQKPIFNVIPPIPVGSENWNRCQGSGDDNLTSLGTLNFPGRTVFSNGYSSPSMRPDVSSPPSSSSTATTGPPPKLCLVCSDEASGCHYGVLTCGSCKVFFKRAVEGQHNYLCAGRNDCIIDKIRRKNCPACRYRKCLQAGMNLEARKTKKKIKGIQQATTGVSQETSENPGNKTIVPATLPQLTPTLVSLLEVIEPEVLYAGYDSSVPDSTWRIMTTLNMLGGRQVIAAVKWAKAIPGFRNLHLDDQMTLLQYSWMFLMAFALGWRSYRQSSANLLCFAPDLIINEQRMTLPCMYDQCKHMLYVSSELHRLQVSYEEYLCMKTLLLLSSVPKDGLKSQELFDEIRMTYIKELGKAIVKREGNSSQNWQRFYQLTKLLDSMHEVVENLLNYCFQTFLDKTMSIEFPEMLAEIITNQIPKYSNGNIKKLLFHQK

For `C[C@]12CC[C@@H]3c4ccc(O)cc4CC[C@H]3[C@@H]1CC[C@@]2(O)c1ccccc1` [[17α-C6H5]-17β-oestradiol], the “affinité relative de liaison (A.R.L)” value [1] was 25%.
In the case of `CCC(=O)[C@@]1(C)CC[C@H]2[C@@H]3CCC4=CC(=O)CCC4=C3CC[C@@]21C` [compound 1, R5020], the Marquage [2] is given as 15%.
For `C[C@]12C[C@H](CCl)[C@@H]3c4ccc(O)cc4CC[C@H]3[C@@H]1CC[C@@H]2O` [compound 6, chlorométhyl 11β-oestradiol], the “marqueur d'affinité du récepteur de l'oestradiol” value [3] is listed as “n'en étant pas un”.
In the case of `CC12CCC3c4ccc(O)cc4CCC3C1CCC2(O)[c-]1cccc1.[Fe+2].c1cc[cH-]c1` (stereo not drawn) [compound 12, 17α-Ferrocényl-17β-oestradiol], the “% d'inhibition de la liaison de l'oestradiol” value ([4]; incubation molarity 2 nM) is reported as 50%, the “% d'inhibition de la liaison de l'oestradiol” value ([4]; incubation molarity 5 nM) is reported as 71% and the “% d'inhibition de la liaison de l'oestradiol” value ([4]; incubation molarity 10 nM) is reported as 81%. For the same compound, the “affinité relative de liaison (A.R.L)” value [1] was 13%.
For Dexaméthasone-mésylate-21 [compound 2], the “liaison non-spécifique” value [5] is given as “Taux élevé de liaison non-spécifique”.
For azide de l'hexestrol [compound 3], the “efficacité d'inactivation” value ([3]; photochemical route) is given as 10-15%.
